The structures appear in SMILES notation.

Chain of Isoform 2 of Hepatocyte growth factor receptor (2) (P08581 as listed by the source): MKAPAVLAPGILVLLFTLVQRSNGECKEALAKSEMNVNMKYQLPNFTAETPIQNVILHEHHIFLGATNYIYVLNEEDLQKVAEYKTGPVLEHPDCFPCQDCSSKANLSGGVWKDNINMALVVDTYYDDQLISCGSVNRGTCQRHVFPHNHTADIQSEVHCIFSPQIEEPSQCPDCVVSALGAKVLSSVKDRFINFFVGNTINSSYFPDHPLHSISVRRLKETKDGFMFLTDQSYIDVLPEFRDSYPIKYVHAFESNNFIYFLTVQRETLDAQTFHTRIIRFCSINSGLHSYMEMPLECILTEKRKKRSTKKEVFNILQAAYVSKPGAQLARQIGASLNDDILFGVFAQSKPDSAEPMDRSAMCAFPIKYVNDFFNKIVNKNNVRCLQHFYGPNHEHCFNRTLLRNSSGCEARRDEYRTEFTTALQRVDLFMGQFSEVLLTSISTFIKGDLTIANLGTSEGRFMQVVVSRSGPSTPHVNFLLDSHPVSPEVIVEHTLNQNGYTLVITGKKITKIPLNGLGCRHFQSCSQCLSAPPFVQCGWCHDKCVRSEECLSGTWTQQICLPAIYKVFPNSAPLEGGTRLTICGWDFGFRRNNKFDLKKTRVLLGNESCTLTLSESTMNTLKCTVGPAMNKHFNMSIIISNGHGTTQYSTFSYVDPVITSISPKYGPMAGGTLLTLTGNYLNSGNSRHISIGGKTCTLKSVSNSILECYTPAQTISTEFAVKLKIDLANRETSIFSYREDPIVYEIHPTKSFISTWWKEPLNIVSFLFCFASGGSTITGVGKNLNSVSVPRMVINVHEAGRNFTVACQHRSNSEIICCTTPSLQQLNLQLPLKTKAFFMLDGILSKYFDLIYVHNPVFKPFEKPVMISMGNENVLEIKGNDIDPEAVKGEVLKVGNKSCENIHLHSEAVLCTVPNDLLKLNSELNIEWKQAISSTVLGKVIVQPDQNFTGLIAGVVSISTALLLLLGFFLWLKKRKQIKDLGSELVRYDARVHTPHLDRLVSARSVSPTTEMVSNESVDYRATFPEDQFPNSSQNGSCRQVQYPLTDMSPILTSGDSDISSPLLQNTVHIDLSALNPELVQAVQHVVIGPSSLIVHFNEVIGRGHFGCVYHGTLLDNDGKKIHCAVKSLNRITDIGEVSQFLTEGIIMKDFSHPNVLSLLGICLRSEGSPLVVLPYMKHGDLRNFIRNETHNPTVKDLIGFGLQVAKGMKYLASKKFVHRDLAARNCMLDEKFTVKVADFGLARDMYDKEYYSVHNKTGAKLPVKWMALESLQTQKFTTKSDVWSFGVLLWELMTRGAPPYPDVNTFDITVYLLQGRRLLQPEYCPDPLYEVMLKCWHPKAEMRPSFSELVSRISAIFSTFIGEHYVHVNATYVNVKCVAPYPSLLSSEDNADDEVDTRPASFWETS

The assay has as its target Isoform 2 of Hepatocyte growth factor receptor (2) (Homo sapiens, UniProt P08581). Nature of the assay: c-Met Z-LYTE Assay. As to conditions: pH 7; 25 °C. Here is the method: The c-Met kinase activity of five target compounds and three positive compounds were evaluated using standard Z-LYTE Assays (fluorescence resonance energy transfer, FRET). The test compounds or reference controls were dissolved indimethyl sulfoxide (DMSO) as stock solution. […] 5 µL of the detectionreagents A (Invitrogen) was added at final concentrations of 64-fold dilution. The plates were incubated at room temperature for 60 min and then read in the Envision plate reader (PerkinElmer).
`CC(Sc1cc(-c2cnn(C3CCNCC3)c2)cnc1N)c1c(Cl)ccc(F)c1Cl` (centres undefined) [3-{[1-(2,6-dichloro-3-fluorophenyl)ethyl]sulfanyl}-5-[1-(piperidin-4-yl)-1H-pyrazol-4-yl]pyridin-2-amine (11b)] registered an IC50 of 51.2 nM.

`Fc1ccc(Cl)c(Sc2n[nH]c3ncc(-c4cnn(C5CCNCC5)c4)cc23)c1Cl` [3-((2,6-dichloro-3-fluorophenyl)thio)-5-(1-(piperidin-4-yl)-1H-pyrazol-4-yl)-1H-pyrazolo[3,4-b]pyridine (9)] showed an IC50 of 22.8 nM.

Take `CC(c1c(Cl)ccc(F)c1Cl)c1c[nH]c2ncc(-c3cnn(C4CCNCC4)c3)cc12` (centres undefined) [4-(4-{3-[1-(2,6-dichloro-3-fluorophenyl)ethyl]-1H-pyrrolo[2,3-b]pyridin-5-yl}-1H-pyrazol-1-yl)piperidine (1)]: the IC50 was under 100 nM.

In the case of `c1ccc(-c2cnc3nnc(C4(c5ccc6ncccc6c5)CC4)n3n2)cc1` [6-(1-{6-phenyl-[1,2,4]triazolo[4,3-b][1,2,4]triazin-3-yl}cyclopropyl)quinoline (5)], the midpoint of inhibition, the IC50, lay at 13 nM.

`O=C(NCc1ccc(F)cc1)Nc1ccc(Oc2ccnc3[nH]c(-c4cccnc4)cc23)c(F)c1` [3-(3-fluoro-4-{[2-(pyridin-3-yl)-1H-pyrrolo[2,3-b]pyridin-4-yl]oxy}phenyl)-1-[(4-fluorophenyl)methyl]urea (2a)] came in with an IC50 of 2 nM.

Consider `CC(c1c(Cl)ccc(F)c1Cl)c1c(Cl)[nH]c2ncc(-c3cnn(C4CCNCC4)c3)cc12` (centres undefined) [4-(4-{2-chloro-3-[1-(2,6-dichloro-3-fluorophenyl)ethyl]-1H-pyrrolo[2,3-b]pyridin-5-yl}-1H-pyrazol-1-yl)piperidine (7)], for which the IC50 is 982 nM.

`Fc1ccc(Cl)c(C2(c3n[nH]c4ncc(-c5cnn(C6CCNCC6)c5)cc34)CC2)c1Cl` [3-(1-(2,6-dichloro-3-fluorophenyl)cyclopropyl)-5-(1-(piperidin-4-yl)-1H-pyrazol-4-yl)-1H-pyrazolo[3,4-b]pyridine (10)] gave an IC50 of 47.4 nM.

Compound `O=C(NCc1ccc(F)cc1)Nc1ccc(Oc2ccnc3[nH]ccc23)c(F)c1` [3-(3-fluoro-4-{1H-pyrrolo[2,3-b]pyridin-4-yloxy}phenyl)-1-[(4-fluorophenyl)methyl]urea (2)] came in with an IC50 of 11 nM.

Regarding `Cc1[nH]c2ncc(-c3cnn(C4CCNCC4)c3)cc2c1C(C)c1c(Cl)ccc(F)c1Cl` (centres undefined) [3-(1-(2,6-dichloro-3-fluorophenyl)ethyl)-2-methyl-5-(1-(piperidin-4-yl)-1H-pyrazol-4-yl)-1H-pyrrolo[2,3-b]pyridine (6)], the midpoint of inhibition, the IC50, lay at 286 nM.

What is called IC50 is the midpoint of a concentration-inhibition curve. A higher IC50 goes with lower potency.

The values above are taken from BindingDB's records for doi:10.1016/j.bioorg.2016.02.009 (Tianjin University of Science and Technology, 2016).
